Assay results reported in patent publication US20250332378A1, “CATHETERS” (ConvaTec Limited, priority 2023, published 2025).

Tests used:
Type in all cases: cell-based
[1] = system: E. faecalis; assay: Rate of kill assessment against repeat inoculation, catheter submerged in medium; details: for reduction in the microbial colony forming unit (CFU) counts: reinoculation at 24 hours; for time up to which rapid kill was observed: within 5 seconds following inoculation, repeat inoculation up to 24 hours
Protocol: (§1) To assess the sterilisation potential of the medium of the invention, a microbiology assessment was conducted which consisted of rate of kill assessments against repeat inoculation of E. coli and E. faecalis. These organisms were selected as they are commonly identified in catheter associated urinary tract infections. The selection also covers both gram-positive and gram-negative species to test the broad spectrum antimicrobial performance of the medium of the invention.
(§2) Intermittent urinary catheters, as used for Example 1, were provided and submerged in an aqueous medium comprising sodium hypochlorite and sodium chloride. The media comprising the catheters were respectively inoculated with the two microorganisms.
(§3) A direct inoculation method was applied against each microorganism. The test organisms were reinoculated following 1, 2, 3, 4, 5, 6, and 24 hours. Following each inoculation, a sample was taken after 5 seconds, 1, 5, 10 and 15 minutes to evaluate the rate of kill.
(§4) A microbiology assessment was performed using a medium of the invention comprising hypochlorous acid in an analogous manner to that performed for Example 2. However, for this test, following each inoculation, a sample was only taken after 5 seconds to evaluate the rate of kill. Further, in addition to the previous microorganisms tested, a further gram-positive organism, S. aureus, was tested.
(§5) To evaluate the antimicrobial activity further, the test was repeated using the same frequency of inoculation, but with sampling performed up to 5 minutes after reinoculation at 24 hours. Even for the most challenging organism, E. faecalis, a reduction in the microbial colony forming unit (CFU) counts of over 3 orders of magnitude was observed after 5 minutes of inoculation.
(§6) A microbiology assessment was performed using the media of the invention comprising hypochlorous acid in an analogous manner to that performed for Example 2. However, for this test, following each inoculation, samples were taken after 5 seconds, 30 seconds, 1, 2, and 5 minutes to evaluate the rate of kill.

[2] = system: E. coli; assay: as above; details: for time up to which rapid kill was observed: within 5 seconds following inoculation, repeat inoculation up to 24 hours; for time up to which highly effective kill was observed: all time periods post-inoculation
Protocol: as §1, §2, §3, §4, §5, §6

[3] = system: S. aureus; assay: as above; details: within 5 seconds following inoculation; repeat inoculation up to 24 hours
Protocol: as §1, §2, §3, §4

[4] = system: Enterococcus faecalis NCTC 12201; assay: In vitro direct inoculation method, comparative test
Protocol: (§7) An in vitro direct inoculation method was used to assess the antimicrobial activity of sulfanilamide in an intermittent urinary catheter scenario against […] Escherichia coli NCIMB 14067 and […] Enterococcus faecalis NCTC 12201; two microorganisms associated with urinary tract infections. Sulfanilamide concentrations of 0.1% and 0.01% were tested and bacterial levels monitored over a period of 5 minutes.
(§8) Representative colonies of the challenge microorganisms, from an 18-24 hour challenge culture plate, were dispersed in MRD to obtain an optical density (OD540 nm) equivalent to approximately 1×10^8 CFU/mL. This was diluted to obtain a working concentration of 1×10^6 CFU/mL. A quantitative count was performed to confirm the inoculum level.
(§9) The challenge organism was prepared in MRD to a concentration of approximately 1×10^6 CFU/mL. This suspension was added in a 1 mL volume to 9 mL of sample (n=3 per sample, n=2 per control) in a sterile 30 mL universal and pipetted up and down to mix. Following each testing period, 5 seconds, 30 seconds, 1 minute, 2 minutes and 5 minutes, 100 μL of the test solution was transferred to 0.9 mL and 9.9 mL volumes of DENB (1:10 and 1:100 dilutions respectively). The most appropriate dilutions were inoculated (100 μL) onto duplicate pre-dried (tryptone soy agar) TSA plates and the inoculum spread using separate sterile L-shaped spreaders (for 10^−1 and 10^−2 dilutions, 0.5 mL were placed onto duplicate plates). The TSA plates were allowed to dry before being inverted and incubated at 35±3° C. for at least 48 hours. Following the incubation period, the number of bacterial colonies were counted on the most appropriate dilution for each dressing type i.e. between 25-250 CFU/plate.
(§10) The samples tested were: 0.1% sulfanilamide in sterile deionised water (SDW); 0.01% sulfanilamide in SDW; 100 ppm hypochlorous acid in SDW; and a SDW control.

[5] = system: Escherichia coli NCIMB 14067; assay: as above
Protocol: as §7, §8, §9, §10

[6] = system: E. coli NCIMB 14067; assay: Antimicrobial efficacy at very low concentrations, total viable counts; details: for numbers of bacteria: after 30 seconds, approximately 1×10^5 CFU/mL inoculated
Protocol: The antimicrobial efficacy of hypochlorous acid was tested at even lower concentrations (10, 25, and 50 ppm) against the challenging organism E. coli NCIMB 14067.
The representative colonies of E. coli NCIMB 14067 were dispersed in maximum recovery diluent (MRD) to obtain an optical density (OD540 nm) equivalent to approximately 1×10^6 CFU/mL. A quantitative plate count was performed on this suspension to determine the total number of viable organisms inoculated. A new suspension was prepared for each concentration tested.
A 1000 ppm hypochlorous acid solution was diluted in sterile deionised water to provide the respective 10, 25 and 50 ppm hypochlorous acid solutions.
The hypochlorous acid samples were aliquoted into 9 mL volumes and 1 mL of the challenge organism suspension was added and mixed (the final number of bacteria present is now approximately 1×10^5 CFU/mL). Following 5, 30 seconds, 1, 2, and 5 minutes, 100 μL volumes were sampled and transferred to 0.9 mL and 9.9 mL of Dey-Engley Neutralising Broth (DENB) (to provide a 1:10 and 1:100 dilution respectively), and total viable counts were performed to establish the amount present. The plates were left to dry before being inverted and incubated at 35±3° C. for at least 48 hours. A negative control was also tested whereby 1 mL of the challenge organism suspension was added to 9 mL of MRD and tested as previously described. Following the incubation period, the number of CFUs were counted on the most appropriate dilution for each sample i.e. between 25-250 CFU/plate.

[7] = 0.1% and 0.01% in SDW, any timepoint, 5 seconds to 5 minutes
[8] = 675 ppm, 30 seconds after sampling
[9] = each concentration tested (250, 675, 1000, 2000 ppm), after 5 minutes of sampling
[10] = 100 ppm in SDW, within 5 seconds and for the remaining testing period (5 minutes)

## [O][Cl+][O-] [chlorine dioxide]
[1]; after around 30 seconds of inoculation
  reduction in the microbial colony forming unit (CFU) counts: 4 orders of magnitude
[1]
  time up to which rapid kill was observed: up to 6 hours
[2]
  time up to which rapid kill was observed: up to 24 hours
[3]
  time up to which rapid kill was observed: up to 6 hours

## Nc1ccc(S(N)(=O)=O)cc1 [sulfanilamide, reference compound]
[4]; [7]
  change in challenge organism numbers compared to the control: no decrease
[5]; [7]
  change in challenge organism numbers compared to the control: no decrease

## OCl [hypochlorous acid]
[1]; 250 ppm, 30 seconds post-inoculation
  time up to which highly effective kill was observed: Up to 5 hours
[1]; 250 ppm, all time periods post-inoculation
  time up to which highly effective kill was observed: up to 4 hours
[1]; [8]
  time up to which effective kill was observed: up to 24 hours
[1]; 675 ppm, all time periods post-inoculation
  time up to which highly effective kill was observed: up to 6 hours
[1]; 675 ppm, from 30 seconds post-inoculation
  time up to which highly effective kill was observed: up to 24 hours
[1]; 1000 ppm, all time periods post-inoculation
  time up to which highly effective kill was observed: up to 24 hours
[1]; after 5 minutes of inoculation
  reduction in the microbial colony forming unit (CFU) counts: over 3 orders of magnitude
[1]; [9]
  time up to which effective kill was found: up to 24 hours
[1]
  time up to which rapid kill was observed: up to 6 hours
[2]; 250 ppm
  time up to which highly effective kill was observed: up to 5 hours
[2]; 675 ppm and above
  time up to which highly effective kill was observed: up to 24 hours
[2]; [8]
  time up to which effective kill was observed: up to 24 hours
[2]; [9]
  time up to which effective kill was found: up to 24 hours
[2]
  time up to which rapid kill was observed: up to 24 hours
[3]
  time up to which rapid kill was observed: up to 6 hours
[4]; [10]
  numbers of challenge organism: undetectable numbers
[5]; [10]
  numbers of challenge organism: undetectable numbers
[6]; 25 ppm
  numbers of bacteria: undetectable numbers
[6]; 50 ppm
  numbers of bacteria: undetectable numbers
[6]; all concentrations (10, 25, 50 ppm) and time points tested
  CFU/mL of negative control (MRD) larger than for the samples by: over 4 orders of magnitude
